In PMC11503522, “Native Mass Spectrometry of Membrane Protein–Lipid Interactions in Different Detergent Environments” (Analytical Chemistry, 2024):

Assays:
AmtB-GlnK complex = target: T1, AmtB-GlnK complex (Escherichia coli, UniProt P69681); test: native MS, mole fraction of lipid-bound states; format: binding; conditions: ADP present, 200 mM ammonium acetate pH 7.4
T1 construct: with Nitrogen regulatory protein GlnK
T1 sequence (P69681 23-428): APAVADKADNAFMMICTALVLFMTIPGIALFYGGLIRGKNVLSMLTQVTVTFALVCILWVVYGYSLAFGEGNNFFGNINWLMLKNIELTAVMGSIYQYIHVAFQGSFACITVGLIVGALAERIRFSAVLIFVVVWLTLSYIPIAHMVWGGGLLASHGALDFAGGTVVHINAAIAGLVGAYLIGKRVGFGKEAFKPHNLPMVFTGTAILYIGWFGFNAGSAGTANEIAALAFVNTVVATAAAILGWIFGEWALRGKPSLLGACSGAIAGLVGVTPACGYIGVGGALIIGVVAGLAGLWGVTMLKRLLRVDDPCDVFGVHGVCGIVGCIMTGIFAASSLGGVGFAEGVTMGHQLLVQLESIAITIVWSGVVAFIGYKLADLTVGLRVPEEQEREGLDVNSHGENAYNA
T1 sequence (P0AC55 1-112 partner): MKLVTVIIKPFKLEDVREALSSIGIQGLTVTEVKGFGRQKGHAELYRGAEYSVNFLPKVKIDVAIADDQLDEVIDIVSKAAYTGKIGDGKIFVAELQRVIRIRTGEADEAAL

AqpZ (AqpZ-STII) = target: T2, AqpZ (AqpZ-STII) (Escherichia coli, UniProt P60844); test: native MS lipid titration, sequential binding model; conditions: LDAO; first lipid bound; range over conditions; 200 mM ammonium acetate pH 7.4, room temperature; read-out: Kd1
T2 construct: C-terminal Strep-tag II
T2 sequence (P60844 1-231): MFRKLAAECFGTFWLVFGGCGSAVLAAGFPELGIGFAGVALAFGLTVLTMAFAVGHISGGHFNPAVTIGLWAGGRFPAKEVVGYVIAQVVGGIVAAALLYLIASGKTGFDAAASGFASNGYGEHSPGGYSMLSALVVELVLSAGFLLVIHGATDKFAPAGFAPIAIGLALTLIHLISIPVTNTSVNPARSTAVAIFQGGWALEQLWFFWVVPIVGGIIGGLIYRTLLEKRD

[1] = target: T3, Aquaporin Z from Escherichia coli containing a C-terminal Strep-tag II (Escherichia coli), P60844; test: native MS; 1 uM AqpZ in 200 mM ammonium acetate pH 7.4 with 2x CMC detergent (C8E4 or LDAO alone; DM, OGNG, NG, C8E4 or LDAO with 5 mM SPM or 60 mM TMAO); nanoESI, Exactive Plus EMR Orbitrap, room temperature; conditions: remark: other sources report otherwise
T3 chain: T2 sequence (P60844 1-231)

CCCCCCCC/C=C\CCCCCCCC(=O)O[C@H](COC(=O)CCCCCCCCCCCCCCC)COP(=O)(O)O [POPA]
native MS, mole fraction of lipid-bound states (AmtB-GlnK complex; several detergents): POPA and POPS binding to AmtB-GlnK was broadly comparable for the different detergents

CCCCCCCC/C=C\CCCCCCCC(=O)O[C@H](COC(=O)CCCCCCCCCCCCCCC)COP(=O)(O)OCC(O)CO (some centres unmarked) [POPG]
native MS, mole fraction of lipid-bound states (AmtB-GlnK complex; several detergents): AmtB-GlnK in different detergent environments showed comparable binding of POPG

CCCCCCCC/C=C\CCCCCCCC(=O)OC[C@H](COP(=O)(O)OCC(O)COP(=O)(O)OC[C@@H](COC(=O)CCCCCCC/C=C\CCCCCCCC)OC(=O)CCCCCCC/C=C\CCCCCCCC)OC(=O)CCCCCCC/C=C\CCCCCCCC (some centres unmarked) [TOCDL]
Kd (AqpZ (AqpZ-STII)): 300 to 1400 nM
native MS, mole fraction of lipid-bound states (AmtB-GlnK complex; 2 μM complex, 25 μM lipid, C8E4, LDAO, DM or NG): binding of TOCDL was more prominent in LDAO and DM

B1: Aquaporin Z from Escherichia coli containing a C-terminal Strep-tag II, P60844 1-231 (natural protein)
chain: T2 sequence (P60844 1-231)
stoichiometry N [1]: 4
